From patent US20160039897A1, “COMPOUNDS AND METHODS FOR TREATING OBESITY AND CONTROLLING WEIGHT” (THE UNIVERSITY OF NORTH CAROLINA AT CHAPEL HILL, priority 2013, published 2016)

Legend:
IGFBP-2−/− mice [1] = assay: Adipocyte area measurement in peri-gonadal adipose tissue; assay type: in vivo, mouse; settings: after 12 weeks
Description: Adipocyte area measurement. Samples of peri-gonadal adipose tissue were fixed in 10% formalin and embedded in paraffin. Multiple sections were obtained from each sample and stained with hematoxylin and eosin. Digital images of each section were acquired using an Olympus BX61 microscope and cell areas were traced manually for at least 200 cells per section by an investigator blinded to the sample identity, using Image J software (1ASS). Four sections from each adipose depot were analyzed to derive the mean cell area per mouse 6 mice per group).

IGFBP-2−/− mice [2] = assay: Inguinal and visceral fat pad, liver and heart weights at sacrifice; assay type: in vivo, mouse; settings: after 12 weeks; for Inguinal fat / Visceral fat: pegylated peptide 50 μg IP 3 times/week, mean±SE
Description: (§1) Body fat and lean muscle mass was measured at weeks 0 and 12 of treatment by magnetic resonance imaging analysis (EchoMRI-100, Echo Medical Systems, Houston, Tex.), a technique that measures fat mass and lean mass in unanesthetized animals (Kelly S A, et. al., 2010). After completion of 12 weeks of treatment, the mice were sacrificed. Blood was collected by cardiac puncture and allowed to sit for 4 hours before centrifuging at 3500 rpm×15 min. The serum was aspirated and stored at −20° C. until analysis. Abdominal inguinal and visceral fat pads were carefully dissected from each animal according to defined anatomical landmarks. All subcutaneous fat between the lower part of the rib cage and the upper thigh was considered abdominal subcutaneous inguinal fat, whereas all fat found along the mesentery starting at the lesser curvature of the stomach and ending at the sigmoid colon was considered visceral fat. Fat depots were blotted dry prior to weighing. The right inguinal fat pad was dissected separately and the triglyceride content of this tissue was determined by a colorimetric analysis (Pointe Scientific, Canton, Mich.), as previously described (Dann H, Kimura S 1992). Serum adiponectin and leptin were measured by ELISA following manufacturer's instructions (Millipore, Billerica, Mass.).
(§2) Body composition and serum adipokine measurement. Body fat and lean mass were measured at weeks 0 and 12 of treatment by magnetic resonance imaging analysis (EchoMRI-100, Echo Medical Systems, Houston, Tex.), using unanesthetized animals. After 12 weeks of treatment, the mice were sacrificed and blood was collected by cardiac puncture and centrifuged at 3500 rpm×15 min. The serum was stored at −20° C. Abdominal inguinal and visceral fat pads were dissected from each animal according to defined anatomical landmarks. Subcutaneous fat between the rib cage and the upper thigh was termed subcutaneous inguinal fat, whereas all fat from the lesser curvature of the stomach to the sigmoid colon was termed visceral fat. Fat depots were blotted dry prior to weighing. The right inguinal fat pad was dissected separately and the triglyceride content of this tissue was determined by a calorimetric analysis (Pointe Scientific, Canton, Mich. Serum adiponectin and leptin were measured by ELISA following manufacturer's instructions (Millipore, Billerica, Mass.).

IGFBP-2−/− mice [3] = assay: Body composition (fat and lean mass) by EchoMRI at weeks 0 and 12; assay type: in vivo, mouse
Description: as §1, §2

[4] = system: primary preadipocytes from IGFBP-2−/− mice; assay: Differentiation of primary preadipocytes (immunoblot of adiponectin, aP2, PPARγ; Oil Red O staining); assay type: cell-based, mouse; settings: for % suppression of adiponectin / reduction of PPARγ expression / reduction of aP2 expression / reduction of adiponectin expression: mean±SE; for % suppression of adiponectin: N=3; for relative potency as inhibitor of adipogenesis / preadipocyte differentiation (in words): comparison between peptides and proteins, immunoblot and Oil Red O; for reduction of PPARγ expression / reduction of aP2 expression / reduction of adiponectin expression: peptide 6 μg/ml in differentiation medium vs differentiation medium only, immunoblot relative to β-actin
Description: Primary preadipocytes were isolated from epididymal fat pads of 6 week old IGFBP-2^−/− mice. The cells were cultured using a previously described method (Boney, C M et al., 1994). The fat pads were weighed and the tissue was digested with an equal volume (W/V) of collagenase type A (Roche Applied Science, Indianapolis, Ind.) in HEPES buffer (0.1M and 1.5% BSA) for 45 min at 37° C. Following complete digestion, the preadipocytes were separated from the stromal vascular cells by centrifugation at 500×g for 5 min. The pelleted cells were washed with DMEM containing 30 mM glucose (Gibco, Grand Island, N.Y.) and passed through a 100 μm mesh filter (BD Biosciences, Bedford, Mass.). The cells were then plated in 6-well plates (Falcon Corp., Franklin Lakes, N.J.) at a density of 1.2-1.5×10^4 cells/ml in DMEM containing 30 mM glucose supplemented with penicillin (100 U/ml), streptomycin (100 μg/ml), and 10% fetal bovine serum hereafter referred to as standard medium. The cultures had the medium changed every 2 days until they reached confluency. Two day post-confluent cells were then exposed to differentiation medium (serum free DMEM containing 0.5 mM IBMX, 1 μM dexamethasone, and 5 μg/mL insulin) and incubated for 2 days. Experimental treatments that were added to this medium included either wild type IGFBP-2 (3 μg/ml), HBD1 peptide (6 μg/ml), HBD1 control peptide (6 μg/ml), HBD2 peptide (6 μg/ml), HBD2 control peptide (6 μg/ml), HBD1 mutant IGFBP-2 (3 μg/ml) or the HBD2 mutant IGFBP-2 (3 μg/ml). Cultures were maintained for two additional days in the standard medium supplemented with 5 μg/ml insulin. Thereafter, the cultures were kept in the fresh standard medium without insulin for additional two days.
After treatment, the cells were rinsed with PBS for two times and fixed with 10% formalin for 30 min at room temperature. After rinsing with distilled water for twice, 100% propylene glycol (Poly Scientific, Bay Shore, N.Y.) was added and incubated for 5 min. Before adding Oil Red O solution (Poly Scientific, Bay Shore, N.Y.), propylene glycol was removed. The cultures were incubated for 10 min at 60° C. Removing Oil Red O solution, the cultures were incubated with 80% propylene glycol for 5 min, After incubation, the cultures were rinsed with tap water twice. Images were captured using an Olympus IX81 inverted microscope.
Differentiated adipocytes were lysed in ice-cold lysis buffer (Xi et al., 2008). After centrifugation at 14,000×g for 10 min, solubilized proteins were quantified by the Bradford method (Thermo Scientific, Rockford, Ill.). Equal protein amounts of lysates were loaded onto a SDS-polyacrylamide gel and the proteins were separated, then transferred to an Immobilon filter and visualized by immunoblotting using the appropriate antibody. The primary antibody dilutions that were used were 1:1000 for the anti-adiponectin antibody (Affinity BioReagents, Golden, Colo.), 1:500 for the anti-PPARγ antibody (Cell Signaling Technology Inc., Beverly, Mass.), 1:2000 for the anti-apt antibody (ProSci Inc., Poway, Calif.) and 1:5000 for the anti-β-actin antibody (Sigma Chemical Company, St. Louis, Mo.). The immune complexes were visualized using enhanced chemiluminescence (Thermo Fischer Scientific, Rockford, Ill.).
Preadipocytes were prepared from mice and grown in culture as described herein. The respective mouse and human peptides were added to cells and the cells were lysed and the lysates were run on SDS gels as described. Immunoblotting for adiponectin was carried as described. Three concentrations of each peptide, 0.7, 2.0 and 6.0 μg/ml, were compared. The results were expressed as % suppression mean±SE(N=3) and were as follows.
Cell culture of primary preadipocytes. Preadipocytes were isolated from epididymal fat pads of IGFBP-2^−/− mice. The cultures had the medium changed every 2 days until they reached confluency. […]

IGFBP-2−/− mice [5] = assay: Triglyceride content of right inguinal fat pad (colorimetric); assay type: in vivo, mouse; settings: after 12 weeks; vs control peptide
Description: as §1, with “All subcutaneous fat between the lower part of the rib cage and the upper thigh was considered abdominal subcutaneous inguinal fat, whereas all fat found along the mesentery starting at the lesser curvature of the stomach and ending at the sigmoid colon was considered visceral fat. Fat depots were blotted dry prior to weighing.” left out
Body composition and serum adipokine measurement. Body fat and lean mass were measured at weeks 0 and 12 of treatment by magnetic resonance imaging analysis (EchoMRI-100, Echo Medical Systems, Houston, Tex.), using unanesthetized animals. […]

[6] = weeks 0 to 12, pegylated peptide 50 μg IP 3 times/week
[7] = weeks 0 to 12, pegylated peptide 50 μg IP 3 times/week, mean±SE

Sequence | adipocyte size (IGFBP-2−/− mice [1]) [pixels/cell] | reduction of inguinal fat pad (percentage of body weight) compared to control peptide (IGFBP-2−/− mice [2]) | reduction of visceral fat (percentage of body weight) compared to control peptide (IGFBP-2−/− mice [2]) [%] | Inguinal fat (IGFBP-2−/− mice [2]) | Visceral fat (IGFBP-2−/− mice [2]) [g] | lean mass change expressed as percentage of body weight (relative reduction) (IGFBP-2−/− mice [3]; [6]) [%] | relative potency as inhibitor of adipogenesis / preadipocyte differentiation (in words) [4] | reduction of PPARγ expression [4] [%] | reduction of aP2 expression [4] | reduction of adiponectin expression [4] | reduction of triglyceride content in the inguinal fat pad (IGFBP-2−/− mice [5]) [%] | also measured
KHGLYNLKQCKMSLNGQR [HBD2 peptide] | 11967±716 | 32±7% | 44±7 | 0.23 ± 0.02 g | 0.25 ± 0.02 | 2.1±0.8 | most potent inhibitors of adipogenesis | 67±7 | completely inhibited | completely inhibited | 37±9 | reduction in body fat mass gain (fat as percentage of body weight) compared to control peptide (IGFBP-2−/− mice [3]; 12 weeks, pegylated peptide 50 μg IP 3 times/week): 48±9%; Fat mass increase (IGFBP-2−/− mice [3]; [7]): 0.58 ± 0.12 g; Lean mass increase (IGFBP-2−/− mice [3]; [7]): 3.10 ± 0.57 g; % suppression of adiponectin ([4]; 0.7 μg/ml peptide): 49.4 ± 10%; % suppression of adiponectin ([4]; 2.0 μg/ml peptide): 87.9 ± 6.2%; % suppression of adiponectin ([4]; 6.0 μg/ml peptide): 96.9 ± 7.0%; potency in inhibiting preadipocyte differentiation relative to the HBD1 peptide ([4]; HBD2 peptide vs HBD1 peptide): 1.8 fold; relative potency as inhibitor of adipogenesis / preadipocyte differentiation (in words) ([4]; listed as human peptide): equipotent
KHLSLEEPKKLRP [HBD1 peptide] | 12406±748 | had no effect | 24±5 | had no effect | 0.34 ± 0.01 | 4.1±1.1 | less activity | 47±9 | 51±2% | 66±10% | 22±2 | inhibition of fat mass acquisition (IGFBP-2−/− mice [3]; 12 weeks): 31%; relative potency as inhibitor of adipogenesis / preadipocyte differentiation (in words) ([4]; listed as mouse HBD1 peptide): equivalent in inhibiting preadipocyte differentiation
